Values quoted from earlier work in patent US20030158237A1, “Combination of antioxidant substances for the treatment of alzheimer's disease” (priority 2001, published 2003).

Experiments:
341 patients = conditions: single-agent therapy, 2 years; vitamin E 2,000 UI/daily, selegiline 10 mg daily
[1] = system: DNA fragmentation induced by low-dose t-BuOOH; conditions: mouse
[2] = system: hippocampal cell cultures
isolated LDL = conditions: 0.025-0.3 mg/l added to isolated LDL; dose dependent
[3] = system: NF-kappa B binding induced by ceramide; conditions: in comparison with N-acetylcystein, acetate d-alpha-tocopherol, ascorbic acid

C#CCN(C)[C@H](C)Cc1ccccc1 [selegiline]
retarded cognitive deterioration (341 patients): 25%

NC(=O)c1cccnc1 [nicotinamide]
DNA fragmentation [1]: able to prevent DNA fragmentation

vitamin E
adverse effects with high doses (3000 IU): indigestion, gastric distress, diarrhea and severe cramps
adverse symptoms (uncommon) (in vivo): cataract, haemorrhage risk in patient with vitamin K deficiency, and syncope
retarded cognitive deterioration (341 patients): 25%
beta A4 induced cell death [2]: reduces beta A4 induced cell death

O=C(O)C=Cc1ccc(O)c(O)c1 [caffeic acid, 3-(3,4-Dihydroxyphenyl)-2-propenoic acid]
time of oxidation of LDL (isolated LDL): prolonged
activity of the NF-kappa B binding induced by ceramide [3]: inhibits significantly
apoptotic response induced by ceramide [3]: inhibits significantly
